“Also recorded” adds a separate entry of the source.
How the values were obtained:
[1] = tested on: acetylcholinesterase (AChE); assay: standard Abcam fluorescent AChE assay in a microplate (plate reader); type: biochemical; details: human tears; microtiter plate format
Text: In addition, we performed side-by-side measurements of a series of samples including the human sample matrices and recombinantly expressed AChE with the SpinDx assay and with a traditional assay including a microtiter plate and plate reader (FIG. 7A-7B). The two assay formats show similar trends in the levels of activity, although certain samples (e.g., unkilled CSF) look dramatically higher in SpinDx than in the plate format.

[2] = tested on: acetylcholinesterase (AChE); assay: SpinDx pulldown AChE activity assay in human sample matrices with or without inhibition by paraoxon; type: biochemical; details: pooled human tears, acetylthiocholine fluorogenic substrate
Text: For this reason, we developed a SpinDx-based assay to provide information on (non-specific) inhibition of cholinesterase (ChE), such that the SpinDx test at a minimum provides information similar to that which can be obtained with the existing Test-mate ChE test, but in a simpler, more portable format. The term “SpinDx-based assay,” as used herein, refers to a bead-based assay format that employs a centrifugal microfluidic disc for transporting such beads (e.g., as described in FIG. 1A-1B and FIG. 3A-3D).
Our SpinDx assay can include components for a fluorescent analog of the Ellman's assay, loaded within the density medium. Upon spinning the disk, the capture beads, but not the blood sample or erythrocytes, will partition into the density medium. […]
We tested the assay extensively in buffer prior to translating to human bodily fluids, using either heat or paraoxon to inhibit the AChE cholinesterase activity. We determined that, in buffer, our limit of detection (LOD) for AChE with the SpinDx assay was between 0.005 and 0.01 mU/mL, with a limit of quantitation (LOQ) of 0.015 to 0.024 mU/mL, depending on the time of incubation (shorter incubations actually gave lower limits of detection and quantitation, perhaps because the fluorogenic assay inherently has a slow signal generation over time due to spontaneous hydrolysis of the substrate). […]

## CCOP(=O)(OCC)Oc1ccc([N+](=O)[O-])cc1 [paraoxon]
[1]
  reduction (kill) of apparent AChE activity by inhibitor: can't be killed
[2]
  reduction (kill) of cholinesterase activity by inhibitor: could not be reduced; also recorded: can't be killed
